Reference: the NIST ThermoML archive (doi:10.1021/je060271a)
± gives the expanded uncertainty stated by the source.

Conditions: 323.15 K, Liquid, Vibrating tube method

SMILES: CCCC(=O)OCC(COC(=O)CCC)(COC(=O)CCC)COC(=O)CCC [pentaerythritol tetrabutyrate]
- mass density (5297 kPa): 1028.8 ± 1.2 kg/m3
- mass density (5297.2 kPa): 1028.8 ± 1.2 kg/m3
- mass density (5297.3 kPa): 1028.9 ± 1.2 kg/m3
- mass density (5297.5 kPa): 1028.8 ± 1.2 kg/m3
- mass density (5297.8 kPa): 1028.8 ± 1.2 kg/m3
- mass density (5324.7 kPa): 1028.9 ± 1.2 kg/m3
- mass density (5344.4 kPa): 1028.9 ± 1.2 kg/m3
- mass density (5347.8 kPa): 1028.8 ± 1.2 kg/m3
- mass density (5370.7 kPa): 1028.8 ± 1.2 kg/m3
- mass density (5375.9 kPa): 1028.8 ± 1.2 kg/m3
- mass density (5394.4 kPa): 1028.9 ± 1.2 kg/m3
- mass density (5418.8 kPa): 1029 ± 1.2 kg/m3
- mass density (5422.4 kPa): 1028.9 ± 1.2 kg/m3
- mass density (5445.4 kPa): 1028.9 ± 1.2 kg/m3
- mass density (5446.8 kPa): 1028.9 ± 1.2 kg/m3
- mass density (5456 kPa): 1028.9 ± 1.2 kg/m3
- mass density (5465.5 kPa): 1028.9 ± 1.2 kg/m3
- mass density (5470.8 kPa): 1029 ± 1.2 kg/m3
- mass density (5493.7 kPa): 1028.9 ± 1.2 kg/m3
- mass density (5495.4 kPa): 1028.9 ± 1.2 kg/m3
- mass density (5499.9 kPa): 1029 ± 1.2 kg/m3
- mass density (5505.6 kPa): 1028.9 ± 1.2 kg/m3
- mass density (5511.7 kPa): 1028.8 ± 1.2 kg/m3
- mass density (5524.8 kPa): 1029 ± 1.2 kg/m3
- mass density (5529.5 kPa): 1029 ± 1.2 kg/m3
- mass density (5540.8 kPa): 1028.9 ± 1.2 kg/m3
- mass density (5549.5 kPa): 1029 ± 1.2 kg/m3
- mass density (5554.5 kPa): 1029 ± 1.2 kg/m3
- mass density (5560.3 kPa): 1028.9 ± 1.2 kg/m3
- mass density (5567.9 kPa): 1028.9 ± 1.2 kg/m3
- mass density (5573.4 kPa): 1028.9 ± 1.2 kg/m3
- mass density (5575 kPa): 1029 ± 1.2 kg/m3
- mass density (5578 kPa): 1029 ± 1.2 kg/m3
- mass density (5582.5 kPa): 1029 ± 1.2 kg/m3
- mass density (5586.4 kPa): 1028.9 ± 1.2 kg/m3
- mass density (5590.4 kPa): 1029.1 ± 1.2 kg/m3
- mass density (5594.2 kPa): 1029 ± 1.2 kg/m3
- mass density (5605.6 kPa): 1029 ± 1.2 kg/m3
- mass density (5630.8 kPa): 1029 ± 1.2 kg/m3
- mass density (5657.1 kPa): 1029.1 ± 1.2 kg/m3
- mass density (5683.6 kPa): 1029.1 ± 1.2 kg/m3
- mass density (5710.2 kPa): 1029.1 ± 1.2 kg/m3
- mass density (5742 kPa): 1029.1 ± 1.2 kg/m3
- mass density (5769.2 kPa): 1029.2 ± 1.2 kg/m3
- mass density (5797 kPa): 1029.2 ± 1.2 kg/m3
- mass density (5824.3 kPa): 1029.2 ± 1.2 kg/m3
- mass density (5857.7 kPa): 1029.2 ± 1.2 kg/m3
- mass density (5886.4 kPa): 1029.2 ± 1.2 kg/m3
- mass density (5945.6 kPa): 1029.2 ± 1.2 kg/m3
- mass density (5970.4 kPa): 1029.2 ± 1.2 kg/m3
- mass density (6001.7 kPa): 1029.3 ± 1.2 kg/m3
- mass density (6023.4 kPa): 1029.3 ± 1.2 kg/m3
- mass density (6053.9 kPa): 1029.4 ± 1.2 kg/m3
- mass density (6080.4 kPa): 1029.4 ± 1.2 kg/m3
- mass density (6107 kPa): 1029.4 ± 1.2 kg/m3
- mass density (6138.8 kPa): 1029.4 ± 1.2 kg/m3
- mass density (6163.7 kPa): 1029.4 ± 1.2 kg/m3
- mass density (6187.1 kPa): 1029.4 ± 1.2 kg/m3
- mass density (6215.2 kPa): 1029.6 ± 1.2 kg/m3
- mass density (6240.1 kPa): 1029.4 ± 1.2 kg/m3
- mass density (6265 kPa): 1029.5 ± 1.2 kg/m3
- mass density (6287.3 kPa): 1029.5 ± 1.2 kg/m3
- mass density (6301.7 kPa): 1029.5 ± 1.2 kg/m3
- mass density (6311 kPa): 1029.5 ± 1.2 kg/m3
- mass density (6319.5 kPa): 1029.4 ± 1.2 kg/m3
- mass density (6327.5 kPa): 1029.6 ± 1.2 kg/m3
- mass density (6345.8 kPa): 1029.6 ± 1.2 kg/m3
- mass density (6372.1 kPa): 1029.6 ± 1.2 kg/m3
- mass density (6398.4 kPa): 1029.7 ± 1.2 kg/m3
- mass density (6423.8 kPa): 1029.8 ± 1.2 kg/m3
- mass density (6456.6 kPa): 1029.6 ± 1.2 kg/m3
- mass density (6483.4 kPa): 1029.6 ± 1.2 kg/m3
- mass density (6511.5 kPa): 1029.6 ± 1.2 kg/m3
